Columns and labels:
Velvetleaf = Velvetleaf control after glyphosate spray, by nozzle type and adjuvant; assay type: in vivo; conditions: 28 days after treatment with glyphosate (0.375 lb ae/ac)
From the text: (§1) The numbers in this table are percent control or percent kill of the weed.

Hemp sesbania = Hemp sesbania control after glyphosate spray, by nozzle type and adjuvant; assay type: in vivo; conditions: 28 days after treatment with glyphosate (0.375 lb ae/ac)
From the text: as §1

For `O=C(O)CNCP(=O)(O)O` [glyphosate], the “Velvetleaf control, InJet 110015 Nozzle” value (Velvetleaf; Table 1, InJet 110015 nozzle) was 85%, the “Velvetleaf control, XR110015 Nozzle” value (Velvetleaf; Table 1) was 83% and the “Velvetleaf control, DR 110015 Nozzle” value (Velvetleaf; Table 5, DR 110015 nozzle) was 90%. The “Velvetleaf control, XR110015 Nozzle” value (Velvetleaf; Table 5) was 87%, the “Hemp sesbania control, InJet 110015 Nozzle” value (Hemp sesbania; Table 2, InJet 110015 nozzle) was 20% and the “Hemp sesbania control, XR110015 Nozzle” value (Hemp sesbania; Table 2) was 41%. For the same compound, the “Hemp sesbania control, DR 110015 Nozzle” value (Hemp sesbania; Table 6, DR 110015 nozzle) was 50% and the “Hemp sesbania control, XR110015 Nozzle” value (Hemp sesbania; Table 6) was 67%.

From patent US20060180677A1, “Agricultural compositions which enhance performance of pesticides applied through drift reducing nozzles” (priority 2005, published 2006)
